Assay results from PubChem BioAssay (NCI).
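Each compound was tested at five concentrations against cells in 96-well plates for 48 hours. At the TGI there is no net growth.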

What was measured:
Assay in all cases: NCI-60 cell line screen, 48 h
CAKI-1 renal = system: CAKI-1 renal
TK-10 renal = system: TK-10 renal
ACHN renal = system: ACHN renal
UO-31 renal = system: UO-31 renal
HS 578T breast = system: HS 578T breast
NCI-H23 lung = system: NCI-H23 lung
KM12 colon = system: KM12 colon
HOP-62 NSCLC = system: HOP-62 NSCLC
RPMI-8226 leukemia = system: RPMI-8226 leukemia

SMILES | TGI (CAKI-1 renal) [µM] | TGI (TK-10 renal) [µM] | TGI (ACHN renal) [µM] | TGI (UO-31 renal) [µM] | TGI (HS 578T breast) [µM] | TGI (NCI-H23 lung) [µM] | TGI (KM12 colon) [µM] | TGI (HOP-62 NSCLC) [µM] | TGI (RPMI-8226 leukemia) [µM]
O=c1c2ncn(COCCCl)c2n(-c2ccccc2)c(=S)n1-c1ccccc1 | > 100 | > 100 | > 100 | > 100 | > 100 | > 100 | > 100 | > 100 | > 100
CCC1(C(=O)OC(C)(C)C)OC12C(C)CCCC2C (stereo not drawn) | > 100 | > 100 | 54.2 | > 100 | > 100 | > 100 | > 100 | > 100 | 49.9
CCN1C(=O)C(=C/C=C/c2ccc([N+](=O)[O-])cc2)C(=O)N(CC)C1=S | 68.7 | 37.8 | 32.1 | 37.2 | 55.1 | 32.8 | 60.7 | 39.2 | 95.8
O=C1CCCCC(=O)OC2(CCCCC2=O)CC1 (stereo not drawn) | > 100 | > 100 | > 100 | > 100 |  | > 100 | > 100 | > 100 | > 100
COC(=O)C1=CC(=O)OC1(OO)c1ccccc1 (stereo not drawn) | > 100 | > 100 | > 100 | > 100 |  | > 100 | > 100 |  | 
O=C(O)CC[N+]1=CCC(c2ccccc2)(c2ccccc2)O1 | > 100 | > 100 | > 100 | > 100 | > 100 | > 100 |  | > 100 | 
Cc1ccc2c(c1)[nH]c1cc(C(F)(F)F)ccc1[p+]2=O (stereo not drawn) | > 100 | > 100 | > 100 |  |  | > 100 | > 100 | > 100 | 
Nc1c(Cl)ncnc1N[C@@H]1C[C@H]1CO | > 100 | > 100 | > 100 | > 100 | > 100 | > 100 | > 100 | > 100 | 
O=c1[nH]/c(=C/c2ccc(OCc3ccccc3)cn2)c(=O)[nH]/c1=C/c1ccc(O)cc1 | 3.08 | 3.03 | > 100 | 1.4 | > 100 | 5.44 |  | > 100 | 9.95
CC1=COC(C)(C=C(C#N)C#N)CC1 (stereo not drawn) |  | > 100 | > 100 | > 100 | 51.3 | > 100 | > 100 | > 100 | > 100
NC(=O)NNC(=O)c1nc[nH]c1[N+](=O)[O-] | > 100 | > 100 |  | > 100 | > 100 | > 100 |  | > 100 | > 100
COC(=O)C1=C2SCc3cccc(c3)CSC3=C(C(=O)OC)SC(=C(S2)S1)S3 | > 100 | > 100 | > 100 | > 100 |  |  | > 100 | > 100 | > 100
N#C/C(=C\n1ccc(=O)[nH]c1=S)C(N)=O | > 100 |  | > 100 | > 100 | > 100 | > 100 | > 100 | > 100 | > 100
O=C(O)c1ccc(S(=O)(=O)c2ccccc2[N+](=O)[O-])cc1 | > 10 | > 10 | > 10 |  | > 10 | > 10 | > 10 | > 10 | > 10
